Read-outs that look alike come from different tables or passages of the source. Peptide text beside a SMILES is read from it.
Columns and labels:
[1] = Permeability coefficient (Papp) across Caco-2 cell monolayers in Ussing Chamber; conditions: Caco-2; for Papp A→B at 60 min, 10 mM: human
Description: (§1) The measurement of permeability coefficient, which was an index of absorbability in the intestinal tract, of ARPs was performed as follows.
(§2) Caco-2 cells were seeded in Cell culture insert at 4.0×10^5 cells/mL, and cultured for 3 days in an intestinal epithelial differentiation promoting medium. Caco-2 cell monolayers were cut and set to Ussing Chamber. Hanks' Balanced Salt Solution (HBSS) (apical membrane side: pH 6.0, basolateral membrane side: pH 7.4) was added in each Chamber. After 15 minutes preliminary heat retention (37° C., 95% O2/5% CO2 mixture gas), each ARPs aqueous solution (10 mM) was added to apical membrane side. Samples were recovered from the basolateral membrane side every 15 minutes (total 60 minutes). The recovered sample was subjected to ESI-TOF-MS (Electro Spray Ionization-Time of Flight-Mass Spectrometry) analysis to determine permeated peptide amount. Permeability coefficient (Papp) was calculated according to the following formula.
(§3) C0: concentration of added peptide (mmol/L)
(§4) dC/dt: Permeated amount of peptide per time (mmol/L·sec)
(§5) Concentration of peptide, which transitioned to the basolateral membrane side in each time, was calculated based on the area from reference standard. In addition, it was confirmed that they were not degraded to amino acids.
(§6) Permeated peptide amount per time was calculated and permeability coefficient (Papp) was calculated according to the above formula.

[2] = system: Caco-2 cell monolayers; test: as above; conditions: compared with the other ARPs
Description: as §1, §2, §3, §4, §5, §6

[3] = system: Caco-2 cell monolayers
Description: as §1, §2, §3, §4, §5, §6

[4] = in vitro; conditions: human, Caco-2
Description: as §1, §2, §3, §4, §5, §6

Papp A→B [1]	permeability coefficient / permeation efficiency in mesenteric model cell, in words [2]	SMILES	also measured
0.72 ± 0.272 ×10⁻⁶ cm/s	relatively high permeation efficiency	N[C@@H](CO)C(=O)N[C@@H](Cc1ccc(O)cc1)C(=O)O [A, Ser-Tyr] (H-Ser-Tyr-OH; N-terminus and C-terminus assumed)	
0.044 ± 0.009 ×10⁻⁶ cm/s		NC(=O)C[C@H](NC(=O)[C@@H](N)Cc1ccc(O)cc1)C(=O)O [F, Tyr-Asn] (H-Tyr-Asn-OH; N-terminus and C-terminus assumed)	

The next lines start with the compound.

SMILES	Papp A→B [1]	permeability coefficient / permeation efficiency in mesenteric model cell, in words [2]	also measured
N[C@@H](Cc1ccc(O)cc1)C(=O)N1CCC[C@H]1C(=O)O [E, Tyr-Pro] (H-Tyr-Pro-OH; N-terminus and C-terminus assumed)	0.885 ± 0.215 ×10⁻⁶ cm/s	relatively high permeation efficiency	
CC[C@H](C)[C@H](N)C(=O)N[C@@H](Cc1ccc(O)cc1)C(=O)O [H, Ile-Tyr] (H-Ile-Tyr-OH; N-terminus and C-terminus assumed)	2.92 ± 0.265 ×10⁻⁶ cm/s	relatively high permeation efficiency	
CC(C)C[C@H](NC(=O)[C@@H](N)Cc1ccc(O)cc1)C(=O)O [B, Tyr-Leu] (H-Tyr-Leu-OH; N-terminus and C-terminus assumed)			permeability coefficient / permeation efficiency in mesenteric model cell, in words [3]: relatively higher permeability coefficient than the other ARPs; Papp A→B at 60 min, 10 mM [4]: 0.596 ± 0.198 ×10⁻⁶ cm/s
N=C(N)NCCC[C@H](NC(=O)[C@@H](N)Cc1ccc(O)cc1)C(=O)O [Peptide C, Tyr-Arg]			Papp A→B at 60 min, 10 mM [1]: 0.05 ± 0.011 ×10⁻⁶ cm/s
N[C@@H](Cc1ccc(O)cc1)C(=O)N[C@@H](CO)C(=O)O [D, Tyr-Ser] (H-Tyr-Ser-OH; N-terminus and C-terminus assumed)	0.248 ± 0.088 ×10⁻⁶ cm/s	relatively higher permeability coefficient than the other ARPs	
N[C@@H](Cc1ccccc1)C(=O)N[C@@H](Cc1ccc(O)cc1)C(=O)O [G, Phe-Tyr] (H-Phe-Tyr-OH; N-terminus and C-terminus assumed)			Papp A→B at 60 min, 10 mM [1]: 0.006 ± 0.0001 ×10⁻⁶ cm/s
